Laboratory results: patent US20060205772A1, “Amide derivatives and their use as inhibitors of 11-beta-hydroxysteroid dehydrogenase type I” (priority 2003, published 2006)

Assays:
[1] = target: T1, human recombinant 11β-HSD1 (Homo sapiens, UniProt P28845); assay: in vitro inhibition of human recombinant 11β-HSD1 (Pichia pastoris microsomes, [3H]cortisone to [3H]cortisol); format: biochemical; conditions: recombinant human 11β-HSD1 microsomes, 500 nM cortisone mixture, NADPH, 90 min at 37° C.
T1 construct: made in house; host or cells: Pichia pastoris (microsomal fraction)
Experimental: The in vitro inhibition of human recombinant 11β-HSD1 is determined as follows:
Recombinant human 11β-HSD1 is expressed in yeast Pichia pastoris. Cultures are grown at 30° C. for 3 days in the presence of methanol to induce enzyme expression. The microsomal fraction overexpressing 11β-HSD1 is prepared from the cell homogenate and used as the enzyme source for primary screening. A test compound at the desired concentration is preincubated for 10 min at RT with 3 μg of the microsomal protein in 50 mM sodium phosphate, pH 7.5, in a total volume of 80 μL. The enzyme reaction is initiated by adding 20 μL of a mixture containing 5 mM NADPH, 500 nM cortisone, and 80,000 dpm of [^3H]cortisone in the same buffer and is terminated by ethyl acetate after incubation for 90 min at 37° C. The production of [^3H]cortisol is quantitated upon separation from [^3H]cortisone by a C18 column on HPLC equipped with a radioactivity detector. Glycerrhetinic acid, a known inhibitor of 11β-HSD1, is used as a standard.

human 11β-HSD2 = target: T2, human 11β-HSD2 (Homo sapiens, UniProt P80365); assay: in vitro inhibition of human 11β-HSD2 (SW-620 cell lysates, [3H]cortisol to [3H]cortisone); format: biochemical
T2 construct: using lysates of SW-620 cells as the enzyme source; host or cells: SW-620 human colon carcinoma cells (lysate)
T2 sequence (P80365 1-405): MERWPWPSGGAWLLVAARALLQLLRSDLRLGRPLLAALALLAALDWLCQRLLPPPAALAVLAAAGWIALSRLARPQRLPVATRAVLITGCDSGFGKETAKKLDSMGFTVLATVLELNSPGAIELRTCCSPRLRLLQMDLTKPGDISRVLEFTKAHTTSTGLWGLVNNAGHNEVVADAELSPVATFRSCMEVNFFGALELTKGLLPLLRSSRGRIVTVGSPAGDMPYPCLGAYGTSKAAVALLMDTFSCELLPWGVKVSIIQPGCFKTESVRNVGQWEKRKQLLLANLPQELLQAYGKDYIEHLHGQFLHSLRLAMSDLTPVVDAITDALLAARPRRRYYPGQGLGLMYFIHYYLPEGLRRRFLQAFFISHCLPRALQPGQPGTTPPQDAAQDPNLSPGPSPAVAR
Experimental: The in vitro inhibition of human 11β-HSD2 is determined as follows:
The SW-620 human colon carcinoma cell line is obtained from the American Type Culture Collection (ATCC). Cells are plated at a density of 8-10×10^4 cells/cm^2 in DMEM/F12 containing 5% BCS, 100 U/mL penicillin, 100 μg/mL streptomycin and […] amphotericin B. Cultures are grown to 80-90% confluence in a humidified, atmosphere of 5% CO2 at 37° C. The medium is changed to serum-free, phenol red-free DMEM/F12 at 24 h before harvesting the cells.
After 24 h in serum-free medium, cultured SW-620 cells are rinsed and scraped in Kreb's-Ringer buffer, pH 7.4, containing 1 mM EDTA, 2 μg/mL aprotinin, 10 μM leupeptin and 1 μM pepstatin. After sonication (30 seconds) and low speed centrifugation (2,000 rpm, 5 min) to remove cellular debris, the supernatant is collected and used to determine enzyme activity and protein concentration (BCA, Pierce, Rockford, Ill.).
Dehydrogenase activity is quantified by measuring the conversion of [^3H]cortisol to [^3H]cortisone using lysates of SW-620 cells as the enzyme source. The assay is performed in tubes containing Kreb's-Ringer buffer pH 7.4, with 0.20 mM NAD and 200,000 dpm of [^3H]cortisol and a test compound in a total volume of 1 mL. The tubes are preincubated for 10 min at 37° C. before adding 200 μg of cell lysates to start the reaction. After incubation for 1 h at 37° C. in a shaking water bath, the mixture is extracted with 2 volumes of ethyl acetate and centrifuged for 10 min at 2,000 rpm. The organic layer is collected, dried under vacuum and resuspended in methanol. The dissolved residues are quantitatively transferred to thin layer plates and developed in chloroform-methanol (90:10). Unlabeled cortisol and cortisone were used as reference markers. The TLC plates are scanned on a Bioscan radioimaging detector (Bioscan, Washington, D.C.), and the fractional conversion of cortisol to cortisone is calculated. Enzyme activity is expressed as pmoles of product formed per mg protein per hour. Carbenoxolone and glycyrrhetinic acid are used as standards.

cellular 11β-HSD1 = target: T3, cellular 11β-HSD1 (Rattus norvegicus, UniProt P16232); assay: inhibition of cellular 11β-HSD1 activity in primary rat hepatocytes; format: cell-based; conditions: 2 h incubation
T3 construct: Enzyme activity is measured in the medium of primary cultures of rat hepatocytes 48 h after plating the cells; endogenous in cells; host or cells: primary hepatocytes of male Sprague-Dawley rats
Experimental: The inhibition of cellular 11β-HSD1 activity in primary rat hepatocytes is determined as follows:
Male Sprague-Dawley rats weighing 180-200 g are anesthetized with sodium pentobarbital (65 mg/kg). The liver is perfused in situ with calcium-free Earl's Balanced Salt Solution (EBSS) followed by EBSS containing 100-150 U/mL of collagenase, 1.8 mM CaCl2 and 10 mM HEPES, pH 7.4. The perfused liver is removed and aseptically placed in warm William's Medium E containing 10% BCS. After decapsulation, the organ is transferred to fresh medium and gently shaken to facilitate tissue dissociation and cell release. Hepatocytes are separated from nonparenchymal and dead cells by repeated low speed centrifugation. Cell viability is determined by trypan blue exclusion.
Hepatocytes are plated on collagen coated dishes at a density of 1×10^5 cells/cm^2 in William's medium E containing 10% BCS, 100 U/mL penicillin, 100 μg/mL streptomycin, 0.25 μg/mL amphotericin B, 2 mM L-glutamine, 10 mM HEPES, 100 nM insulin and 1 nM dexamethasone. After 1 h the medium is changed to serum-free William's medium E supplemented as described above. Thereafter, the medium is replaced every 24 h. The cultures are maintained in a humidified atmosphere of 5% CO2 at 37° C.
Enzyme activity is measured in the medium of primary cultures of rat hepatocytes 48 h after plating the cells. The medium is aspirated and replaced with serum-free William's medium E containing 2 nM [^3H]11-dehydrocorticosterone and a test compound and is incubated for 2 h. An aliquot of culture medium is removed at the end of the incubation and the mixture is extracted with 2 volumes of ethyl acetate, dried under vacuum and resuspended in methanol. The dissolved residues are quantitatively transferred to thin layer plates and developed in chloroform-methanol (90:10). The TLC plates are scanned on a Bioscan imaging detector and the fractional conversion of 11-dehydrocorticosterone to corticosterone is calculated. The cell layer is rinsed with cold phosphate-buffered saline and dissolved in 0.1 N NaOH/5% SDS for the determination of cellular protein (BCA, Pierce, Rockford, Ill.). Enzyme activity is expressed as pmoles of product formed per mg protein per hour.

[2] = test system: corticosterone production in adrenalectomized (ADX) mice; assay: inhibition of corticosterone production in adrenalectomized (ADX) mice; format: in vivo; conditions: Mus musculus, po; ADX CD1 mice, orally 25 mg/kg each at 2 and 4 h before sacrifice; liver corticosterone
Experimental: Inhibition of corticosterone production in adrenalectomized (ADX) mice is determined as follows:
Bilateral adrenalectomy is performed in male mice of the CD1 strain (6 to 8 weeks of age, 25-30 g body weight) through a lumbar laparotomy. After 10 days the animals are fasted for 24 h. Compounds are administered orally at 25 mg/kg each at 2 and 4 h before sacrifice. A second group of animals receives carbenoxolone at the same dose, and a third group receives the vehicle (cornstarch). Homogenized liver samples are used to measure corticosterone concentration which is determined by radioimmunoassay and is expressed as pg of corticosterone per mg of liver protein.

T1 sequence (P28845 whole entry): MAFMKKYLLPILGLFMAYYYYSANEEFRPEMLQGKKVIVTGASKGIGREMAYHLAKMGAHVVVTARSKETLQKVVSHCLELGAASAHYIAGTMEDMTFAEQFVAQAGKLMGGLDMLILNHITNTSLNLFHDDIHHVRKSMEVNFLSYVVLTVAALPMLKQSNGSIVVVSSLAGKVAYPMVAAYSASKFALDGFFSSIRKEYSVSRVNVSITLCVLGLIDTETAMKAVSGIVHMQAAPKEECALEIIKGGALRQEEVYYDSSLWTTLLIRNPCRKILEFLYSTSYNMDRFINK
T3 sequence (P16232 whole entry): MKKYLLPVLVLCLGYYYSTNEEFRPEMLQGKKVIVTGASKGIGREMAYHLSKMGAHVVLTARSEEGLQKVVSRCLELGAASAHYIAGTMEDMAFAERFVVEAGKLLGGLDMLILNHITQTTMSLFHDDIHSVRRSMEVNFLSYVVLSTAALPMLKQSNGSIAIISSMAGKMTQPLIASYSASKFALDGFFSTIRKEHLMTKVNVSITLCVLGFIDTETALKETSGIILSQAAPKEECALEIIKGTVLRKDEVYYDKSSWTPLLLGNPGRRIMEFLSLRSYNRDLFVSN

Structure (SMILES)	melting point [°C]	IC50 [1] [µM]	inhibition at 10 µM (human 11β-HSD2) [%]	inhibition at 1 µM (cellular 11β-HSD1) [%]	change in vivo at 25 mg/kg [2] [%]
C[C@H]1CCCC[C@@H]1N(C)C(=O)c1ccc(NC(=O)c2ccc(Cl)cc2Cl)cc1 [Example 8-8]	80 to 90	–	–	–	–
COc1ccccc1CNC(=O)c1ccc(C(=O)N2CCC[C@@H]3CCCC[C@@H]32)cc1 [Example 23-47]	–	2.12	49	71	-61
Cn1c(C(=O)N2CCC[C@@H]3CCCC[C@H]32)cc2ccccc21 (relative stereo) [Example 38, (1-Methyl-1H-indol-2-yl)-(4aS*,8aR*)-octahydro-1(2H)-quinolin-1-yl-methanone]	–	0.18	10	49	-62
Cc1ccc(NC(=O)c2ccc(C(=O)N3CCC[C@H]4CCCC[C@@H]43)cc2)cc1 (racemic) [Example 22, 4-[(4aS*,8aR*)-Octahydro-1(2H)-quinoline-1-carbonyl]-N-p-tolylbenzamide]	199 to 203	–	–	–	–
CN(CC1CCCCC1)C(=O)c1ccc(NC(=O)c2ccc(F)cc2)cc1Cl [Example 3-11]	–	1	26	80	-69
COc1ccc(C(=O)Nc2ccc(C(=O)N3CCC[C@H]4CCCC[C@@H]43)c3ccccc23)cc1OC (racemic) [Example 27, 3,4-Dimethoxy-N-{4-[(4aS*,8aR*)-octahydro-1(2H)-quinoline-1-carbonyl]-naphthalen-1-yl}-benzamide]	251 to 260	–	–	–	–
O=C(Nc1cccc(-c2ccc(C(=O)N3CCC[C@H]4CCCC[C@@H]43)o2)c1)c1ccccc1 (racemic) [Example 34, N-{3-[5-((4aS*,8aR*)-Octahydro-1(2H)-quinoline-1-carbonyl)-furan-2-yl]-phenyl}-benzamide]	62 to 64	–	–	–	–
O=C(Nc1ccc(C(=O)N2CCC[C@H]3CC(O)CC[C@@H]32)cc1)c1ccc(Cl)cc1Cl (relative stereo) [Example 41, 2,4-Dichloro-N-[4-((4aS*,6S*,8aS*)-6-hydroxy-octahydro-1(2H)-quinoline-1-carbonyl)-phenyl]-benzamide]	183 to 184	–	–	–	–
COc1cccc(NC(=O)Nc2ccc(C(=O)N3CCC[C@H]4CCCC[C@H]43)c(OC)c2)c1 [Example 13-4]	–	0.042	44	53	-70
O=C(NCc1ccc(F)cc1)N1CCc2cc(C(=O)N3CCC[C@H]4CCCC[C@H]43)ccc21 [Example 33-21]	–	0.262	45	84	-71
CC1=C(C(=O)N(C)CC23CC4CC(CC(C4)C2)C3)Cc2ccccc21 [Example 8-6]	–	0.0065	11	54	-57
O=C(Nc1ccc(C(=O)N2CCC[C@H]3CCCC[C@@H]32)cn1)c1ccc(Cl)cc1Cl (racemic) [Example 25, 2,4-Dichloro-N-{5-[(4aS*,8aR*)-octahydro-1(2H)-quinoline-1-carbonyl]-pyridin-2-yl}-benzamide]	202 to 203	–	–	–	–
CC1=C(C(=O)N2CCC[C@@H]3CCCC[C@H]32)Cc2ccccc21 (racemic) [Example 36, (3-Methyl-H-inden-2-yl)-(4aS*,8aR*)-octahydro-1(2H)-quinolin-1-yl-methanone]	98 to 100	–	–	–	–
CN(C(=O)c1ccc(NC(=O)c2ccc(Cl)cc2Cl)cc1)C1CC2CCC1C2 (stereo not shown) [Example 8-9]	85 to 100	–	–	–	–
CN(CC1CCCCC1)C(=O)c1ccc(NC(=O)c2ccc(F)cc2)cc1 [Example 1, N-Cyclohexylmethyl-4-fluorobenzoylamino-N-methylbenzamide]	158 to 160	–	–	–	–
O=C(Nc1ccc(C(=O)N2CCC[C@@H]3CCCC[C@@H]32)cc1)c1ccc(F)cc1 [Example 11-13]	–	0.563	2	90	-73
O=C(c1ccc(-c2ccccc2[N+](=O)[O-])o1)N1CCC[C@@H]2CCCC[C@@H]21 [Example 35-15]	–	0.0077	34	76	-67
O=C(Nc1ccc(C(=O)N2CCC[C@H]3CCCC[C@@H]32)cn1)c1ccc(F)cc1 (racemic) [Example 26, 4-Fluoro-N-{5-[(4aS*,8aR*)-octahydro-1(2H)-quinoline-1-carbonyl]-pyridin-2-yl}-benzamide]	144 to 145	–	–	–	–
CC1(C)CC[C@H]2[C@@H](CCCN2C(=O)c2ccc(NC(=O)c3ccc(Cl)cc3Cl)cc2)C1 (racemic) [Example 44, 2,4-Dichloro-N-[4-((4aS*,8aS*)-6,6-dimethyl-octahydro-1(2H)-quinoline-1-carbonyl)-phenyl]-benzamide]	220 to 221	–	–	–	–
